Reference: patent publication US20250346579A1, “PYRIDAZINONE COMPOUND AND PREPARATION METHOD THEREFOR, PHARMACEUTICAL COMPOSITION THEREOF, AND APPLICATION THEREOF” (CHINA PHARMACEUTICAL UNIVERSITY, priority 2021, published 2025)

Biological target: T1, PARP7 (Homo sapiens, UniProt Q7Z3E1)
T1 construct: purchased BPS Bioscience
T1 sequence (Q7Z3E1 1-657): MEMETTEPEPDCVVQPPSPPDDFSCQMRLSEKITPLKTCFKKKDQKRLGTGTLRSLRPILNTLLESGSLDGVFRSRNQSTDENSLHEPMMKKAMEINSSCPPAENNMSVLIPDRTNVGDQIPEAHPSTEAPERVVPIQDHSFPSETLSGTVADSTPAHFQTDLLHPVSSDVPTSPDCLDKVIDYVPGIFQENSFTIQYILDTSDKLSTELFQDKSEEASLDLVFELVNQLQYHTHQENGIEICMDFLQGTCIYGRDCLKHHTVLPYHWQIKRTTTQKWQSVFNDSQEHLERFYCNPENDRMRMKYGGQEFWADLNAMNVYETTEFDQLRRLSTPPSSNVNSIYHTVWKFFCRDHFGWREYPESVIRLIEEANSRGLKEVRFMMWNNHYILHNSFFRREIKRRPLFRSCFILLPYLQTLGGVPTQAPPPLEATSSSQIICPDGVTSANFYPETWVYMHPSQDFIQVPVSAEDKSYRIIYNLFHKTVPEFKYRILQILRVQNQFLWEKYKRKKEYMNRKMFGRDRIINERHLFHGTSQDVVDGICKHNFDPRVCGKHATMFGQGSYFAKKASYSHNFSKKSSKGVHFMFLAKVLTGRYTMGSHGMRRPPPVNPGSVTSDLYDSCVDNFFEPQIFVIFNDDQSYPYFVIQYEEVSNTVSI
Test: Inhibitory activity of compounds on PARP7 enzyme (PARP7 Chemiluminescent Assay Kit)
Type: biochemical
Details: chemiluminescence, symbols defined as IC50 classes, read-out: 100 nM Inhibition Rate
Experimental: Experimental materials: PARP7 Chemiluminescent Assay Kit, BPS Bioscience; DMSO, China National Pharmaceutical Group, Nivo, PerkinElmer.
(1) Preparation of Solutions and Buffers:
Preparation of 10×PBS: 720 mg of KH2PO4, 45 g of NaCl and 5.311 g of Na2HPO4·12H2O were weighed respectively and dissolved in 500 mL of deionized water, a system pH value was adjusted to 7.4, sterilization was performed at 121° C. for 30 min, and the system after cooling was placed at 4° C. for later use.
Preparation of 1×PBS: 10×PBS was diluted 10 times with deionized water, that is, 9 parts of deionized water was added to 1 part of 10×PBS for dilution.
Preparation of wash buffer: 1×PBS contained 0.05% Tween-20.
Preparation of 1×PARP buffer (prepared freshly before use): 10×PARP buffer was diluted 10 times with deionized water and placed on ice for later use.
(2) Preparation of Compound Working Solution Concentration:
According to test requirements, a compound to be tested is diluted with 100% DMSO to a desired concentration, and then diluted 10 times with 1×PARP buffer to prepare a 10× compound working solution.
a. 5× histone mixture was thawed on ice one day prior to the experiment;
b. preparation of 1× histone mixture: 1× histone mixture was prepared through the 5× histone mixture by using 1×PBS; and 25 μL of 1× histone mixture was taken from each well and transferred into a test well plate and incubated overnight at 4° C.;
c. 100 μL of Blocking buffer was taken from each well and added to the test well plate and incubated for 90 min at 25° C.;
d. after the incubation was completed, the liquid in the test well plate was spin-dried, and the test well plate was washed repeatedly for 3 times;
e. 2.5 μL of the compound working solution was taken from each well and added to the test well plate according to an experimental layout diagram; and 1×PARP buffer with a corresponding volume of 10% DMSO was added to positive control wells (Positive Control), and 1×PARP buffer of a corresponding volume was added to blank control wells (Blank);
f. after the enzyme was completely dissolved, an enzyme stock solution was diluted with 1×PARP buffer to 6 ng/μL;
g. 10 μL of enzyme solution was taken from each well and added to the test well plate, the blank control wells were added with the corresponding volume of 1×PARP buffer, and in which case, the enzyme amount was 60 ng per well. Note: this step needs to be performed on ice;
h. 12.5 μL of master mixture was added to each well of the test well plate (12.5 μL master mixture included 1.25 μL of 10×PARP buffer, 1.25 μL of Opti-PARP 10× Assay mixture and 10 μL of water); the test well plate was sealed and incubated at 25° C. for 60 min;
i. after the incubation was completed, the liquid in the test well plate was spin-dried, and the test well plate was washed repeatedly for 3 times;
j. Streptavidin-HRP in a kit was diluted 50 times with a Blocking buffer, 25 μL was taken from each well and added to the test well plate, and incubated at 25° C. for 30 min;
k. after the incubation was completed, the liquid in the test well plate was spin-dried, and the test well plate was washed repeatedly for 3 times;
l. ELISA ECL Substrate A and ELISA ECL Substrate B in the kit was mixed to obtain a mixed solution according to a ratio of 1:1, 50 μL of the mixed solution was added to each well of the test well plate, Nivo was used to perform Luminescence detection immediately, and a luminous value (RLU) was read; and
m. calculation of an enzyme rate: Enzyme Activity=(RLU(Sample)−RLU(Blank))/(RLU(Pos.Ctrl)−RLU(Blank))×100%; and enzyme inhibition rate=1−% Enzyme Activity, and specific results were shown in Table 1 below.

Row | SMILES | IC50
1 | C[C@@H](CN1CC(C(=O)N2CCN(c3ncc(-c4ccc(C(F)(F)F)cc4)cn3)CC2)C1)Nc1cn[nH]c(=O)c1C(F)(F)F [I-A-2, (S)-4-(trifluoromethyl)-5-((1-(3-(4-(5-(4-(trifluoromethyl)phenyl)pyrimidin-2-yl)piperazine-1-carbonyl)azetidin-1-yl)propan-2-yl)amino)pyridazin-3(2H)-one] | 100 to 500 nM
2 | C[C@@H](CN1CC(C(=O)N2CCN(c3ncc(S(C)(=O)=O)cn3)CC2)C1)Nc1cn[nH]c(=O)c1C(F)(F)F [I-A-4, (S)-5-((1-(3-(4-(5-(methylsulfonyl)pyrimidin-2-yl)piperazine-1-carbonyl)azetidin-1-yl)propan-2-yl)amino)-4-(trifluoromethyl)pyridazin-3(2H)-one] | < 100 nM
3 | C[C@@H](CN1CC(C(=O)N2CCN(c3ncc(Cl)cn3)CC2)C1)Nc1cn[nH]c(=O)c1C(F)(F)F [I-A-5, (S)-5-((1-(3-(4-(5-chloropyrimidin-2-yl)piperazine-1-carbonyl)azetidin-1-yl)propan-2-yl)amino)-4-(trifluoromethyl)pyridazin-3(2H)-one] | < 100 nM
4 | C[C@@H](CN1CC(C(=O)N2CCN(c3ncc(Br)cn3)CC2)C1)Nc1cn[nH]c(=O)c1C(F)(F)F [I-A-7, (S)-5-((1-(3-(4-(5-bromopyrimidin-2-yl)piperazine-1-carbonyl)azetidin-1-yl)propan-2-yl)amino)-4-(trifluoromethyl)pyridazin-3(2H)-one] | < 100 nM
5 | C[C@@H](CN1CC(C(=O)N2CCN(c3ncc(F)cn3)CC2)C1)Nc1cn[nH]c(=O)c1C(F)(F)F [I-A-8, (S)-5-((1-(3-(4-(5-fluoropyrimidin-2-yl)piperazine-1-carbonyl)azetidin-1-yl)propan-2-yl)amino)-4-(trifluoromethyl)pyridazin-3(2H)-one] | 100 to 500 nM
6 | COc1cnc(N2CCN(C(=O)C3CN(C[C@H](C)Nc4cn[nH]c(=O)c4C(F)(F)F)C3)CC2)nc1 [I-A-9, (S)-5-((1-(3-(4-(5-methoxypyrimidin-2-yl)piperazine-1-carbonyl)azetidin-1-yl)propan-2-yl)amino)-4-(trifluoromethyl)pyridazin-3(2H)-one] | < 100 nM
7 | C[C@@H](CN1CC(C(=O)N2CCN(c3ccc(C(F)(F)F)cc3)CC2)C1)Nc1cn[nH]c(=O)c1C(F)(F)F [I-A-11] | 100 to 500 nM
8 | C[C@@H](CN1CC(C(=O)N2CCN(c3nccc(C(F)(F)F)n3)CC2)C1)Nc1cn[nH]c(=O)c1C(F)(F)F [I-A-13, (S)-4-(trifluoromethyl)-5-((1-(3-(4-(4-(trifluoromethyl)pyrimidin-2-yl)piperazine-1-carbonyl)azetidin-1-yl)propan-2-yl)amino)pyridazin-3(2H)-one] | < 100 nM
9 | C[C@@H](CN1CC(C(=O)NC2CN(c3ncc(C(F)(F)F)cn3)C2)C1)Nc1cn[nH]c(=O)c1C(F)(F)F [I-A-15, (S)-1-(2-((6-oxo-5-(trifluoromethyl)-1,6-dihydropyridazin-4-yl)amino)propyl)-N-(1-(5-(trifluoromethyl)pyrimidin-2-yl)azetidin-3-yl)azetidine-3-carboxamide] | < 100 nM
10 | CC1CN(c2ncc(C(F)(F)F)cn2)CC(C)N1C(=O)C1CN(C[C@H](C)Nc2cn[nH]c(=O)c2C(F)(F)F)C1 (stereo partly drawn) [I-A-17, 5-(((2S)-1-(3-(2,6-dimethyl-4-(5-(trifluoromethyl)pyrimidin-2-yl)piperazine-1-carbonyl)azetidin-1-yl)propan-2-yl)amino)-4-(trifluoromethyl)pyridazin-3(2H)-one] | < 100 nM
11 | C[C@@H](CN1CCC(C(=O)N2CCN(c3ncc(C(F)(F)F)cn3)CC2)CC1)Nc1cn[nH]c(=O)c1C(F)(F)F [I-A-19, (S)-4-(trifluoromethyl)-5-((1-(4-(4-(5-(trifluoromethyl)pyrimidin-2-yl)piperazine-1-carbonyl)piperidin-1-yl)propan-2-yl)amino)pyridazin-3(2H)-one] | 100 to 500 nM
12 | O=C(C1CN(CCNc2cn[nH]c(=O)c2C(F)(F)F)C1)N1CCN(c2ncc(C(F)(F)F)cn2)CC1 [I-A-20, 4-(trifluoromethyl)-5-((2-(3-(4-(5-(trifluoromethyl)pyrimidin-2-yl)piperazine-1-carbonyl)azetidin-1-yl)ethyl)amino)pyridazin-3(2H)-one] | < 100 nM

Further lines, results first:

Row | IC50 | SMILES
13 | < 100 nM | C[C@@H](CN1CC(C(=O)N2CCN(c3ncc(C#N)cn3)CC2)C1)Nc1cn[nH]c(=O)c1C(F)(F)F [I-A-3, (S)-2-(4-(1-(2-((6-oxo-5-(trifluoromethyl)-1,6-dihydropyridazin-4-yl)amino)propyl)azetidine-3-carbonyl)piperazin-1-yl)pyrimidine-5-carbonitrile]
14 | < 100 nM | Cc1cnc(N2CCN(C(=O)C3CN(C[C@H](C)Nc4cn[nH]c(=O)c4C(F)(F)F)C3)CC2)nc1 [I-A-6, (S)-5-((1-(3-(4-(5-methylpyrimidin-2-yl)piperazine-1-carbonyl)azetidin-1-yl)propan-2-yl)amino)-4-(trifluoromethyl)pyridazin-3(2H)-one]
15 | < 100 nM | C[C@@H](CN1CC(C(=O)N2CCN(c3ccc(C(F)(F)F)cn3)CC2)C1)Nc1cn[nH]c(=O)c1C(F)(F)F [I-A-10, (S)-4-(trifluoromethyl)-5-((1-(3-(4-(5-(trifluoromethyl)pyridin-2-yl)piperazine-1-carbonyl)azetidin-1-yl)propan-2-yl)amino)pyridazin-3(2H)-one]
16 | 100 to 500 nM | C[C@@H](CN1CC(C(=O)N2CCN(c3cccc4c3oc3ccccc34)CC2)C1)Nc1cn[nH]c(=O)c1C(F)(F)F [I-A-12]
17 | 100 to 500 nM | C[C@@H](CN1CC(C(=O)N2CCN(c3ncccn3)CC2)C1)Nc1cn[nH]c(=O)c1C(F)(F)F [I-A-14, (S)-5-((1-(3-(4-(pyrimidin-2-yl)piperazine-1-carbonyl)azetidin-1-yl)propan-2-yl)amino)-4-(trifluoromethyl)pyridazin-3(2H)-one]
18 | < 100 nM | C[C@@H](CN1CC(C(=O)N(C)C2CN(c3ncc(C(F)(F)F)cn3)C2)C1)Nc1cn[nH]c(=O)c1C(F)(F)F [I-A-16, (S)-N-methyl-1-(2-((6-oxo-5-(trifluoromethyl)-1,6-dihydropyridazin-4-yl)amino)propyl)-N-(1-(5-(trifluoromethyl)pyrimidin-2-yl)azetidin-3-yl)azetidine-3-carboxamide]
19 | 100 to 500 nM | C[C@@H](CN1CC[C@H](C(=O)N2CCN(c3ncc(C(F)(F)F)cn3)CC2)C1)Nc1cn[nH]c(=O)c1C(F)(F)F [I-A-18, 4-(trifluoromethyl)-5-(((2S)-1-(3-(4-(5-(trifluoromethyl)pyrimidin-2-yl)piperazine-1-carbonyl)pyrrolidin-1-yl)propan-2-yl)amino)pyridazin-3(2H)-one]

Same assay, conditions: summary of Table 1, read-out: enzyme inhibition IC50 values

Row | IC50 | SMILES
20 | < 100 nM | C[C@@H](CN1CC(C(=O)N2CCN(c3nccc(C(F)(F)F)n3)CC2)C1)Nc1cn[nH]c(=O)c1C(F)(F)F [I-A-13, (S)-4-(trifluoromethyl)-5-((1-(3-(4-(4-(trifluoromethyl)pyrimidin-2-yl)piperazine-1-carbonyl)azetidin-1-yl)propan-2-yl)amino)pyridazin-3(2H)-one]
21 | < 100 nM | O=C(C1CN(CCNc2cn[nH]c(=O)c2C(F)(F)F)C1)N1CCN(c2ncc(C(F)(F)F)cn2)CC1 [I-A-20, 4-(trifluoromethyl)-5-((2-(3-(4-(5-(trifluoromethyl)pyrimidin-2-yl)piperazine-1-carbonyl)azetidin-1-yl)ethyl)amino)pyridazin-3(2H)-one]
